Calls of active or inactive are those of the source. How the calls were made is not given here.
System: rodent carcinogenicity bioassays, tumor incidence
Assay: CCRIS carcinogenicity studies
Settings: Species: MOUSE
Summary of the method: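 Archive of carcinogenicity, mutagenicity, tumor promotion and tumor inhibition results drawn from journals, NCI reports and other sources, expert-reviewed; covers 1985-2011 and is no longer updated.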

`c1ccc2c(c1)cc1ccc3cccc4ccc2c1c34` was tested, and the carcinogen call (Strain/Sex: C3H/MALE, Route: DERMAL, Dose: 0.15-470 UG, 3/WK FOR LIFE, Tumor Site: Type of Lesion: INTEGUMENTARY SYSTEM (SKIN)) was “active; positive”, the carcinogen call (Strain/Sex: C3H/MALE, Route: SUBCUTANEOUS, Dose: 0.00195-8.0 MG, SINGLE DOSE, Tumor Site: Type of Lesion: INJECTION SITE: SARCOMA) was “active; positive” and the carcinogen call (Strain/Sex: C3H, Route: DERMAL, Dose: 0.00002-0.02%, 3/WK FOR UP TO 80 WK, Tumor Site: Type of Lesion: INTEGUMENTARY SYSTEM (SKIN)) was “active; positive”. For the same compound, the carcinogen call (Strain/Sex: C57BL/FEMALE, Route: INTRATRACHEAL, Dose: 0, 1 MG ON CHARCOAL POWDER INSTILLED 8 TIMES (STUDY DURATION: 13 WK), Tumor Site: Type of Lesion: LUNG: SQUAMOUS CELL CARCINOMA OR ADENOCARCINOMA) was “active; positive”, the carcinogen call (Strain/Sex: C57BL/FEMALE, Route: SUBCUTANEOUS, Dose: 0, 0.5, 1 MG IN 1% AQUEOUS GELATIN INJECTED IN THE SCAPULAR REGION OF NEWBORN MICE ONCE (STUDY DURATION: 9 WK), Dose: 0, 0.5, 1 MG IN 1% AQUEOUS GELATIN INJECTED IN THE SCAPULAR REGION OF NEWBORN MICE ONCE (STUDY DURATION: 9 WK)) was “inactive; negative” and the carcinogen call (Strain/Sex: C57BL/MALE, Route: SUBCUTANEOUS, Dose: 0, 0.5, 1 MG IN 1% AQUEOUS GELATIN INJECTED IN THE SCAPULAR REGION OF NEWBORN MICE ONCE (STUDY DURATION: 9 WK), Dose: 0, 0.5, 1 MG IN 1% AQUEOUS GELATIN INJECTED IN THE SCAPULAR REGION OF NEWBORN MICE ONCE (STUDY DURATION: 9 WK)) was “inactive; negative”. For the same compound, the carcinogen call (Strain/Sex: C57BL, Route: DERMAL, Dose: 0.0001-0.5%, 3/WK, Tumor Site: Type of Lesion: INTEGUMENTARY SYSTEM (SKIN)) was “active; positive”, the carcinogen call (Strain/Sex: C57BL, Route: SUBCUTANEOUS, Dose: 0.00004, 0.0004, 0.004, 0.04 MG, SINGLE DOSE, Tumor Site: Type of Lesion: INJECTION SITE: SARCOMA) was “active; positive” and the carcinogen call (Strain/Sex: C57BR/CDJ/FEMALE, Route: SUBCUTANEOUS, Dose: 0, 0.5, 1 MG IN 1% AQUEOUS GELATIN INJECTED IN THE SCAPULAR REGION OF NEWBORN MICE ONCE (STUDY DURATION: 9 WK), Dose: 0, 0.5, 1 MG IN 1% AQUEOUS GELATIN INJECTED IN THE SCAPULAR REGION OF NEWBORN MICE ONCE (STUDY DURATION: 9 WK)) was “inactive; negative”. The carcinogen call (Strain/Sex: C57BR/CDJ/MALE, Route: SUBCUTANEOUS, Dose: 0, 0.5, 1 MG IN 1% AQUEOUS GELATIN INJECTED IN THE SCAPULAR REGION OF NEWBORN MICE ONCE (STUDY DURATION: 9 WK), Dose: 0, 0.5, 1 MG IN 1% AQUEOUS GELATIN INJECTED IN THE SCAPULAR REGION OF NEWBORN MICE ONCE (STUDY DURATION: 9 WK)) was “inactive; negative”, the carcinogen call (Strain/Sex: CAF1, Route: DERMAL, Dose: 0.0005, 0.001, 0.5%, 3/WK, Tumor Site: Type of Lesion: INTEGUMENTARY SYSTEM (SKIN): PAPILLOMA) was “active; positive” and the carcinogen call (Strain/Sex: CFW/MALE, FEMALE, Route: ORAL, Dose: 30-250 PPM IN DIET FOR 70-197 D, Tumor Site: Type of Lesion: STOMACH) was “active; positive”. The carcinogen call (Strain/Sex: CFW/MALE, FEMALE, Route: ORAL, Dose: 250 PPM IN DIET FOR 1-30 D, OBSERVED UNTIL 103-107 D, Tumor Site: Type of Lesion: FORESTOMACH) was “active; positive”, the carcinogen call (Strain/Sex: CFW, Route: SUBCUTANEOUS, Dose: 0.001-2 MG, SINGLE DOSE, Tumor Site: Type of Lesion: INJECTION SITE: FIBROSARCOMA) was “active; positive” and the carcinogen call (Strain/Sex: DBA/2/FEMALE, Route: INTRATRACHEAL, Dose: 0, 1 MG ON CHARCOAL POWDER INSTILLED 8 TIMES (STUDY DURATION: 13 WK)) was “inactive; negative”. For the same compound, the carcinogen call (Strain/Sex: EU-PIM-1/MALE, Route: GAVAGE, Dose: 0, 4.3, 13, 39 MG/KG BW IN 0.1 ML SOY OIL 3/WK FOR 13 WK (STUDY DURATION: 291 D), Dose: 0, 4.3, 13, 39 MG/KG BW IN 0.1 ML SOY OIL 3/WK FOR 13 WK (STUDY DURATION: 291 D), Tumor Site: Type of Lesion: LYMPHATIC SYSTEM: LYMPHOMA, FORESTOMACH: TUMOR) was “active; positive”, the carcinogen call (Strain/Sex: ICR/FEMALE, Route: INTRAPERITONEAL, Dose: 0, 59.5 UG TOTAL DOSE (8.5 UG/5 µL, 17 UG/10 µL, 34 UG/20 µL DMSO ON DAYS 1, 8 AND 15) ADMINISTERED TO NEWBORN ANIMALS (, Tumor Site: Type of Lesion: LUNG: ADENOMA) was “active; positive” and the carcinogen call (Strain/Sex: ICR/MALE, Route: INTRAPERITONEAL, Dose: 0, 59.5 UG TOTAL DOSE (8.5 UG/5 µL, 17 UG/10 µL, 34 UG/20 µL DMSO ON DAYS 1, 8 AND 15) ADMINISTERED TO NEWBORN ANIMALS (, Tumor Site: Type of Lesion: LUNG: ADENOMA) was “active; positive”. The carcinogen call (Strain/Sex: N:GP(S)/FEMALE, Route: INTRATRACHEAL, Dose: 0, 1 MG ON CHARCOAL POWDER INSTILLED 8 TIMES (STUDY DURATION: 13 WK)) was “inactive; negative”, the carcinogen call (Strain/Sex: N:GP(S)/FEMALE, Route: SUBCUTANEOUS, Dose: 0, 40, 62.5, 125, 250, 500, 1000 UG FOR 9 WK (STUDY DURATION: 9 WK), Dose: 0, 40, 62.5, 125, 250, 500, 1000 UG FOR 9 WK (STUDY DURATION: 9 WK), Tumor Site: Type of Lesion: LUNG: ADENOMA) was “active; positive” and the carcinogen call (Strain/Sex: N:GP(S)/MALE, Route: SUBCUTANEOUS, Dose: 0, 40, 62.5, 125, 250, 500, 1000 UG FOR 9 WK (STUDY DURATION: 9 WK), Dose: 0, 40, 62.5, 125, 250, 500, 1000 UG FOR 9 WK (STUDY DURATION: 9 WK), Tumor Site: Type of Lesion: LUNG: ADENOMA) was “active; positive”.
